Experimental data: patent publication US10993983B2, “Cyclic peptide epitopes and small-molecule mimics for inducing autophagy” (TRUSTEES OF TUFTS COLLEGE, priority 2016, dated 2021)
Marks after values point to notes of the source that are not given here. Bridges are numbered along the chain shown (N, C = ends). Where no end group is shown, it is not given here. [ ]: non-standard residue; d: D form. MP = not defined here

How the values were obtained:
p62 = p62 degradation assay (p62/actin immunoblot);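 for Activity (μM) 10, p62/actin assay activity: HeLa cells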;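 for Activity (μM) 100, p62/actin assay activity: HeLa cells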;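 for Activity (μM) 20, p62/actin assay activity: HeLa cells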;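 for Activity (μM) 30, p62/actin assay activity: HeLa cells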;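 for Activity (μM) 50, p62/actin assay activity: HeLa cells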; assay type: cell-based; set-up: key: −: activity not reported; 0: decreased vs. WT; +: similar to WT; ++: modest increase vs. WT; +++: significant increase vs. WT; settings: for Activity (μM) 30, p62/actin assay activity: 30 μM; for Activity (μM) 50, p62/actin assay activity: 50 μM; for Activity (μM) 10, starred cell, p62/actin assay activity: Table 8, 10 μM marked * (footnote: data taken at 20 instead of 30 μM); for Activity (μM) 100, p62/actin assay activity: 100 μM; for Activity (μM) 10, p62/actin assay activity: 10 μM
Procedure: (§1) Cells were treated with peptide in OPTI-MEM (Thermo Scientific) acidified with 0.15% (v/v) 6N HCl for 3 hour. Cells were rinsed with Dulbecco's phosphate buffered saline (PBS) and lysed in lysis buffer (20 mM HEPES, 150 mM NaCl, 1 mM EDTA, 1% Triton X-100, protease inhibitor cocktail (Roche) on ice for 1 hour. Cell lysates were centrifuged at 16,000 g for 10 min at 4° C. and analyzed by SDS-PAGE and transferred to PVDF membranes. The membranes were blocked 5% non-fat dry milk (NFDM) in PBST (PBS+0.05% Tween-20) for 1 hour, then incubated overnight at 4° C. with primary antibody in 5% NFDM in PBST. The blots were washed with PBST and incubated with HRP-conjugated secondary antibodies diluted in 5% NFDM in PBST for 1 hour at room temperature. Membranes were washed with PBST and visualized with SuperSignal West Pico Chemiluminescent Substrate (Thermo Scientific). Semi-quantitative results were obtained by noting the lowest concentration at which both p62 degradation and LC3-I to LC3-II conversion were observed.
(§2) Compounds 1-10 were evaluated using the assays described in Examples 4 and 5. Activity for each compound was measured in the p62 degradation assay and the LC3 marker assay as described herein. The activity at each concentration of peptide is given as, for example, (0/+) where 0 would be the p62/actin assay activity and + would be the LC3 assay activity.

LC3 = LC3 marker assay (LC3-I to LC3-II conversion immunoblot);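 for Activity (μM) 10, LC3 assay activity: HeLa cells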;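 for Activity (μM) 100, LC3 assay activity: HeLa cells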;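 for Activity (μM) 20, LC3 assay activity: HeLa cells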;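 for Activity (μM) 30, LC3 assay activity: HeLa cells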;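 for Activity (μM) 50, LC3 assay activity: HeLa cells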; assay type: cell-based; set-up: key: −: activity not reported; 0: decreased vs. WT; +: similar to WT; ++: modest increase vs. WT; +++: significant increase vs. WT; settings: for Activity (μM) 30, LC3 assay activity: 30 μM; for Activity (μM) 50, LC3 assay activity: 50 μM; for Activity (μM) 10, starred cell, LC3 assay activity: Table 8, 10 μM marked * (footnote: data taken at 20 instead of 30 μM); for Activity (μM) 100, LC3 assay activity: 100 μM; for Activity (μM) 10, LC3 assay activity: 10 μM
Procedure: as §1, §2

[1] = Table 8, control compound T25, first symbol
[2] = Table 8, control compound T25, second symbol
[3] = Table 3, control vehicle, first symbol
[4] = Table 3, control vehicle, second symbol
[5] = Table 6, control DMSO, first symbol
[6] = Table 6, control DMSO, second symbol

Sequence | Activity (μM) 30, p62/actin assay activity (p62; [1]) | Activity (μM) 50, p62/actin assay activity (p62; [1]) | Activity (μM) 10, starred cell, p62/actin assay activity (p62; first symbol) | Activity (μM) 30, LC3 assay activity (LC3; [2]) | Activity (μM) 50, LC3 assay activity (LC3; [2]) | Activity (μM) 10, starred cell, LC3 assay activity (LC3; second symbol) | Activity (μM) 10, p62/actin assay activity (p62; [5]) | Activity (μM) 30, p62/actin assay activity (p62; [5]) | Activity (μM) 50, p62/actin assay activity (p62; [5]) | Activity (μM) 100, p62/actin assay activity (p62; [5]) | Activity (μM) 10, LC3 assay activity (LC3; [6]) | Activity (μM) 30, LC3 assay activity (LC3; [6]) | Activity (μM) 50, LC3 assay activity (LC3; [6]) | Activity (μM) 100, LC3 assay activity (LC3; [6]) | other results
VCNACFHIWH [Compound 70] | 0/0 | 0 | 0/0* | 0/0 | + | 0/0* |  |  |  |  |  |  |  |  | 
VCNACFHIWH [Compound 71] | 0 | 0 | 0 | ++ | +++ | + |  |  |  |  |  |  |  |  | 
VCNACFHIWH [Compound 72] | 0/0 | + | 0/0* | 0/0 | ++ | 0/0* |  |  |  |  |  |  |  |  | 
VCNACFHIWH [Compound 73] | 0 | + | 0/0* | + | +++ | 0/0* |  |  |  |  |  |  |  |  | 
VCNACFHIWH [Compound 74] | 0 | +++/+++ | 0 | ++ | +++/+++ | + |  |  |  |  |  |  |  |  | 
VCNATCHIRIWH (H-V[dC]NAT[dC]HIRIWH; linker 2-6 via MP (inferred); not fully specified (C-terminus); reading uncertain) [Compound 37] |  | 0/0 |  |  | 0/0 |  |  |  |  |  |  |  |  |  | Activity (μM) 100, p62/actin assay activity (p62; [1]): 0/0; Activity (μM) 100, LC3 assay activity (LC3; [2]): 0/0
VCNATCHIWH [Compound 2] | 0/0 | 0 | 0/0* | 0/0 | + | 0/0* |  |  |  |  |  |  |  |  | Activity (μM) 10, p62/actin assay activity (p62; Table 3, control vehicle, first symbol of cell): 0/0; Activity (μM) 20, p62/actin assay activity (p62; 20 μM, Table 3, control vehicle, first symbol): 0/0; Activity (μM) 50, p62/actin assay activity (p62; [3]): 0/0; Activity (μM) 100, p62/actin assay activity (p62; [3]): 0/0; Activity (μM) 10, LC3 assay activity (LC3; Table 3, control vehicle, second symbol of cell): 0/0; Activity (μM) 20, LC3 assay activity (LC3; 20 μM, Table 3, control vehicle, second symbol): 0/0; Activity (μM) 50, LC3 assay activity (LC3; [4]): 0/0; Activity (μM) 100, LC3 assay activity (LC3; [4]): 0/0
VCNATCHIWH [Compound 18] |  |  |  |  |  |  | 0/0 | 0/0 | 0/0 | 0/0 | 0/0 | 0/0 | 0/0 | 0/0 | 
VCNATCHIWH [Compound 19] |  |  |  |  |  |  | + | ++ | ++ | +++ | 0 | 0 | + | + | 
VCNATCHIWH [Compound 20] |  |  |  |  |  |  | ++/++ | +++ | +++ | +++ | ++/++ | ++ | ++ | ++ | 
VCNATCHIWH [Compound 21] |  |  |  |  |  |  | ++ | +++ | +++ | +++ | 0 | 0 | 0 | 0 | 
VCNATCHIWH [Compound 22] |  |  |  |  |  |  | +++ | +++ | +++ | +++ | + | + | ++ | + | 
